From US4053615A, “Phthalimidopiperidines and anti-convulsant compositions thereof” (John Wyeth & Brother Limited, priority 1972, dated 1977)

Experiments:
[1] = test system: clonic and tonic convulsions induced by pentylenetetrazole; experiment: Procedure A: anti-pentylenetetrazole activity; format: in vivo; design: key to Activity class, Procedure A: INACTIVE: A compound is regarded as inactive in either one of the two procedures if the ED50 of the compound in the test procedure is greater than 400 mg/kg; details: mice, p.o.; for ED50: Mus musculus, po, 1 h, challenge one hour later with pentylenetetrazole 125 mg/kg i.p., read-out: ED50 (against convulsions), Procedure A
Procedure: ANTI-PENTYLENETETRAZOLE ACTIVITY
Compounds at a number of dose levels are administered p.o. to groups of six mice (3 males and 3 females). One hour later the animals are challenged with pentylenetetrazole (125mg/kg i.p.). The incidence of clonic and tonic convulsions and deaths is observed for one-half hour. Protection against convulsions and death is determined by comparison with controls run simultaneously. An ED50 against convulsions is calculated from probit-log dose curves.

[2] = test system: blood platelet aggregation; experiment: Inhibition of blood platelet aggregation
[3] = Anti-inflammatory activity; format: in vivo; details: when tested on warm blooded animals
[4] = test system: tonic extensor seizures (maximal electroshock); experiment: Procedure B: maximal electroshock seizures (MES); format: in vivo; design: key to Activity class, Procedure B: INACTIVE: A compound is regarded as inactive in either one of the two procedures if the ED50 of the compound in the test procedure is greater than 400 mg/kg; details: mice, orally; for ED50: Mus musculus, po, 1 h, supramaximal electroshock one hour later (25 mA, 0.2 sec), read-out: ED50 (against convulsions), Procedure B
Procedure: MAXIMAL ELECTROSHOCK SEIZURES (MES)
Compounds at graded dose levels are administered orally to groups of six mice. One hour later, the animals are given a supramaximal electroshock through pinna electrodes (25 mA, 0.2 sec). Presence or absence of tonic extensor seizures as well as the number of deaths are recorded.
The percent protection against seizures is calculated. An ED50 against convulsions is calculated from probit-log dose curves.

Anti-arrhythmic activity = format: in vivo; details: when tested on warm blooded animals

Row | Compound | ED50 [1] [mg/kg] | further results
1 | Nc1ccc2c(c1)C(=O)N(C1CCN(Cc3ccccc3)CC1)C2=O [Example 16, 4-(4-Aminophthalimido)-1-benzylpiperidine] | 6 to 15 | 
2 | O=C1c2ccccc2C(=O)N1C1CCNCC1 [Example 2, 4-Phthalimido-piperidine] |  | inhibition of blood platelet aggregation [2]: active as an inhibitor of blood platelet aggregation
3 | O=C1c2ccccc2C(=O)N1C1CCN(Cc2ccccc2)CC1 [Example 1, 1-Benzyl-4-phthalimido-piperidine] |  | anti-inflammatory activity [3]: Anti-inflammatory activity is shown
4 | CCCCN1CCC(N2C(=O)c3ccc([N+](=O)[O-])cc3C2=O)CC1 [Example 12, 1-n-Butyl-4-(4-nitrophthalimido)piperidine] | 6 to 15 | 
5 | CCN1CCCC(N2C(=O)c3ccc(N)cc3C2=O)C1 (stereo not shown) [Example 6, 3-(4-Aminophthalimido)-1-ethylpiperidine] | 6 to 15 | 
6 | CCN1CCCC(N2C(=O)c3ccccc3C2=O)C1 (stereo not shown) [Example 3, 1-Ethyl-3-phthalimido-piperidine] | 51 to 100 | ED50 [4]: 31 to 50 mg/kg; anti-arrhythmic activity (Anti-arrhythmic activity): anti-arrhythmic activity is shown
7 | CCCCN1CCC(N2C(=O)c3ccc(N)cc3C2=O)CC1 [Example 13, 4-(4-Aminophthalimido)-1-n-butylpiperidine] | 6 to 15 | 
8 | CCN1CCC(N2C(=O)c3ccccc3C2=O)C1 (stereo not shown) [1-ethyl-3-phthalimido-pyrrolidine, 1-ethyl-3-phthalimidopyrrolidine, reference compound] | > 400 | ED50 [4]: > 400 mg/kg; Activity class, Procedure B ([4]; maximal electroshock): INACTIVE; Activity class, Procedure A ([1]; pentylenetetrazole challenge): INACTIVE
9 | O=C1c2ccc([N+](=O)[O-])cc2C(=O)N1C1CCN(Cc2ccccc2)CC1 [Example 15, 1-Benzyl-4-(4-nitrophthalimido)piperidine] | 6 to 15 | 
10 | CCN1CCCC(N2C(=O)c3ccc([N+](=O)[O-])cc3C2=O)C1 (stereo not shown) [Example 4, 1-Ethyl-3-(4-nitrophthalimido)piperidine] | 6 to 15 | anti-arrhythmic activity (Anti-arrhythmic activity): anti-arrhythmic activity is shown
